Here are results for five compounds from ChEMBL document CHEMBL4229492, “Design, Synthesis, and Biological Evaluation of Novel 7-[(3 aS,7 aS)-3 a-Aminohexahydropyrano[3,4- c]pyrrol-2(3 H)-yl]-8-methoxyquinolines with Potent Antibacterial Activity against Respiratory Pathogens” (J Med Chem, 2018).

Each structure is given as a SMILES string. Values after ≈ are worked out from the molar mass of the structure shown. Active and inactive are the calls of the source. The rule behind the calls is not given here.

Series [1] relates to Streptococcus pneumoniae. The series can be described thus: In vivo antibacterial activity against quinolone-sensitive and penicillin-resistant Streptococcus pneumoniae 033806 infected in CBA/JNCrj mouse assessed as reduction in bacterial count at 40 to 80 mg/kg, sc administered twice per day starting from 1 day after infection and measured on day after final dose. It is filed as functional, organism-based.

Another series concerns Moraxella catarrhalis. The series is described as follows: Antibacterial activity against Moraxella catarrhalis ATCC 25238 after 18 hrs by two-fold microbroth dilution method. It is filed as functional. The settings on record: ATCC 25238, 18 h. A general note: Dilution methods test growth across graded concentrations, often in twofold steps.
Series [2] has as its system Escherichia coli. The series can be described thus: Antibacterial activity against Escherichia coli 5-037042'98 harboring gyrase A Asp87Gly mutation after 18 hrs by two-fold microbroth dilution method. The format is functional. The settings on record: 5-037042'98, 18 h.
The subject of another series is Enterococcus faecalis. The series can be described thus: Antibacterial activity against Enterococcus faecalis ATCC 19433 after 18 hrs by two-fold microbroth dilution method. The format is functional. The settings on record: ATCC 19433, 18 h.
Series [3] relates to Escherichia coli. The series can be described thus: Antibacterial activity against Escherichia coli NIHJ after 18 hrs by two-fold microbroth dilution method. It is filed as functional.
The next series relates to Klebsiella pneumoniae. The series can be described thus: Antibacterial activity against Klebsiella pneumoniae TYPE 1 after 18 hrs by two-fold microbroth dilution method. The format is functional. The settings on record: TYPE 1, 18 h.
Series [4] is described as follows: Metabolic stability in human microsomes at 1 uM assessed as compound remaining after 30 mins. The format is ADME, Microsome. The settings on record: read-out: Stability.
The subject of series [5] is Staphylococcus aureus. The series can be described thus: Antibacterial activity against levofloxacin and methicillin-resistant Staphylococcus aureus 890325-1 after 18 hrs by two-fold microbroth dilution method. The format is functional. The settings on record: 890325-1, 18 h.
A further series relates to Pseudomonas aeruginosa. The series is described as follows: Antibacterial activity against Pseudomonas aeruginosa PAO1 after 18 hrs by two-fold microbroth dilution method. It is filed as functional. The settings on record: PAO1, 18 h.
Another series deals with Albumin (Homo sapiens, UniProt P02768). The series is described as follows: Binding affinity to human serum albumin after 60 mins at 37 degC by ultrafiltration-based LC-MS analysis. It is filed as ADME. To be noted: read-out: PB (converted).
The next series concerns Haemophilus influenzae. The series is described as follows: Antibacterial activity against Haemophilus influenzae ATCC 49247 after 18 hrs by two-fold microbroth dilution method. The format is functional. The settings on record: ATCC 49247, 18 h.
Series [6] addresses T1, hERG (KCNH2) (Homo sapiens, UniProt Q12809). The series is described as follows: Inhibition of human ERG expressed in HEK293 cells at 30 uM. To be noted: HEK293 cells that express human ERG. The format is cell-based.
For series [7], the system named is Escherichia coli. The series is described as follows: Antibacterial activity against quinolone-resistant Escherichia coli DNS5101 after 18 hrs by two-fold microbroth dilution method. To be noted: DNS5101, 18 h. It is filed as functional.
The target in series [8] is T1, hERG (KCNH2). The series is described as follows: Inhibition of human ERG expressed in HEK293 cells at 100 uM. The format is cell-based. To be noted: HEK293 cells that express human ERG.
The test system of series [9] is Staphylococcus aureus. The series is described as follows: Antibacterial activity against Staphylococcus aureus SMITH after 18 hrs by two-fold microbroth dilution method. The format is functional.
Series [10] has as its system Streptococcus pneumoniae. The series can be described thus: Antibacterial activity against penicillin-susceptible Streptococcus pneumoniae J41 after 18 hrs by two-fold microbroth dilution method. The settings on record: J41, 18 h. The format is functional.
In a further series the test system is Bacillus spizizenii. The series can be described thus: Antibacterial activity against Bacillus subtilis ATCC 6633 after 18 hrs by two-fold microbroth dilution method. It is filed as functional. To be noted: ATCC 6633, 18 h.
Another series has as its system Streptococcus pyogenes. The series is described as follows: Antibacterial activity against Streptococcus pyogenes ATCC 12344 after 18 hrs by two-fold microbroth dilution method. The format is functional. The settings on record: ATCC 12344, 18 h.
The subject of series [11] is Streptococcus pneumoniae. The series can be described thus: Antibacterial activity against penicillin-susceptible Streptococcus pneumoniae J24 after 18 hrs by two-fold microbroth dilution method. The format is functional. To be noted: J24, 18 h.
The subject of series [12] is Staphylococcus aureus. The series is described as follows: Antibacterial activity against levofloxacin and methicillin-resistant Staphylococcus aureus 870307 after 18 hrs by two-fold microbroth dilution method. It is filed as functional. To be noted: Staphylococcus aureus, 870307, 18 h.
A short description of series [13]: AUC (0 to 8 hrs) in cynomolgus monkey serum at 5 mg/kg, iv. The format is ADME, organism-based, Macaca fascicularis. More on the design: dose 5 mg/kg, time < 8 hr, route intravenous.
Series [14] can be described thus: AUC (0 to 24 hrs) in cynomolgus monkey serum at 5 mg/kg, po. Further details: time < 24 hr, dose 5 mg/kg, route oral. The format is ADME, organism-based, Macaca fascicularis.
Series [15] is described as follows: Cmax in Crj:CD rat at 5 mg/kg, po. It is filed as ADME, organism-based. To be noted: in vivo. More on the design: dose 5 mg/kg, route oral.
Series [16] is described as follows: AUC (0 to 8 hrs) in Crj:CD rat at 5 mg/kg, po. The format is ADME, organism-based. Further details: time < 8 hr, dose 5 mg/kg, route oral. The settings on record: in vivo.
Series [17] relates to Streptococcus pneumoniae. The series can be described thus: In vivo antibacterial activity against quinolone-sensitive and penicillin-resistant Streptococcus pneumoniae 033806 infected in CBA/JNCrj mouse assessed as reduction in bacterial count at 10 to 40 mg/kg, sc administered twice per day starting from 1 day after infection and measured on day after final dose. It is filed as functional, organism-based.

T1 sequence (Q12809 whole entry): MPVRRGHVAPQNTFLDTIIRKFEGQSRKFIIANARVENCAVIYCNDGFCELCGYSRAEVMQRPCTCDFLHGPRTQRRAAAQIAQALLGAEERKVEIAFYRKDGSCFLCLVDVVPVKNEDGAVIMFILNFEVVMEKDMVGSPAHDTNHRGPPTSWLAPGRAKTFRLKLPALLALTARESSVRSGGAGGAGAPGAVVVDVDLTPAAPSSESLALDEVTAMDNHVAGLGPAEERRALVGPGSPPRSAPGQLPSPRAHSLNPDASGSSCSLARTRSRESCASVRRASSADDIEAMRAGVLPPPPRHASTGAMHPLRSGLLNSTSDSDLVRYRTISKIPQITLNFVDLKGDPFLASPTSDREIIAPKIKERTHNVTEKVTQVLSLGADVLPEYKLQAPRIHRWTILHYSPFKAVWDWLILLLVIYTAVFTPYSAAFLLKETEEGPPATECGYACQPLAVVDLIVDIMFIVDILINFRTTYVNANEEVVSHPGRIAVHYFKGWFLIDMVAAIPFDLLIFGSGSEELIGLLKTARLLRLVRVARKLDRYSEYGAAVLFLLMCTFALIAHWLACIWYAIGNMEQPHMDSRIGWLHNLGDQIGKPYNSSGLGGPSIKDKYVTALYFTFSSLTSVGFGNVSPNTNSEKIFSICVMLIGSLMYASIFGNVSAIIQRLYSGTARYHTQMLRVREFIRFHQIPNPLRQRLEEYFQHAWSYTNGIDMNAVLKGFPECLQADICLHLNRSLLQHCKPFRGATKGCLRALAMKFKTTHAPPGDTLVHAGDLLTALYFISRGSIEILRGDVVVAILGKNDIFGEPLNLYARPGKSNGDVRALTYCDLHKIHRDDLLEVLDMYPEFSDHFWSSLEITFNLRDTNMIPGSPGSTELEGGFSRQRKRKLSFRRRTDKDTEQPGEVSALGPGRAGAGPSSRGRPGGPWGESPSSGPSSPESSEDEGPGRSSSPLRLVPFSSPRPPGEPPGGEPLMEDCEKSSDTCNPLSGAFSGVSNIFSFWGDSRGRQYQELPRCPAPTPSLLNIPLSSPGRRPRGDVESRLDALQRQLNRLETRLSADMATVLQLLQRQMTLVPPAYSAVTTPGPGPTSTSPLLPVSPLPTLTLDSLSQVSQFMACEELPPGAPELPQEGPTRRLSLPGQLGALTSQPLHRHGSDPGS
Chain of Albumin (P02768 whole entry): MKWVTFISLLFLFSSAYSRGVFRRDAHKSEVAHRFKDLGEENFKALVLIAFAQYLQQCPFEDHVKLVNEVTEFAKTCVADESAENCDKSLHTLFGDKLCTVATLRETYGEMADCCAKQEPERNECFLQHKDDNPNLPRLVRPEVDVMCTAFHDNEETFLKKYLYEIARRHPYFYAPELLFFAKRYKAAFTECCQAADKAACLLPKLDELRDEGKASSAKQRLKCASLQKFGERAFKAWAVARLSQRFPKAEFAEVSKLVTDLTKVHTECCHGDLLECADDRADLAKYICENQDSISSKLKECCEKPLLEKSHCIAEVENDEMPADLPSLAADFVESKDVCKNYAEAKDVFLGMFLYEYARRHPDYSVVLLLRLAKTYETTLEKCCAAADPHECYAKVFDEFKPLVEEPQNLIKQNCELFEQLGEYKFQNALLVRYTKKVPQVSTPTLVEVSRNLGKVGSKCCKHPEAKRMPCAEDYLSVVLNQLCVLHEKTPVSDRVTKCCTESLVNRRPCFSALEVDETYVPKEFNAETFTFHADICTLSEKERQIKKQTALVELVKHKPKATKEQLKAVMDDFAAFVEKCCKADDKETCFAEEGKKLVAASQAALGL

For `COc1c(N2C[C@@H]3CCCN[C@@H]3C2)c(F)cc2c(=O)c(C(=O)O)cn(C3CC3)c12`, in the series on Streptococcus pneumoniae [1], the outcome was Active.
Take `COc1c(N2C[C@H]3CCOC[C@@]3(N)C2)c(F)cc2c(=O)c(C(=O)O)cn([C@@H]3C[C@@H]3F)c12`: the MIC with Moraxella catarrhalis was found to be 0.1 µg/mL (≈ 0.23 µM); in the series on Escherichia coli [2] it was 0.39 µg/mL (≈ 0.896 µM); in the series with Enterococcus faecalis, 0.39 µg/mL (≈ 0.896 µM); against Escherichia coli [3], 0.05 µg/mL (≈ 0.115 µM); against Klebsiella pneumoniae it was 0.2 µg/mL (≈ 0.459 µM); against Staphylococcus aureus [5], 0.78 µg/mL (≈ 1.79 µM). Besides, the MIC in the series with Pseudomonas aeruginosa was 3.13 µg/mL (≈ 7.19 µM); in the series with Haemophilus influenzae, 0.012 µg/mL (≈ 0.0276 µM); in the series with Escherichia coli [7], > 6.25 µg/mL; in the series on Staphylococcus aureus [9] it was 0.012 µg/mL (≈ 0.0276 µM); in the series with Streptococcus pneumoniae [10], 0.2 µg/mL (≈ 0.459 µM); with Bacillus spizizenii it was 0.025 µg/mL (≈ 0.0574 µM). In addition, the MIC came to 0.2 µg/mL (≈ 0.459 µM) in the series on Streptococcus pyogenes, 0.2 µg/mL (≈ 0.459 µM) against Streptococcus pneumoniae [11] and 0.78 µg/mL (≈ 1.79 µM) in the series with Staphylococcus aureus [12]. Also, in series [4], the remaining at 0.5 h, 1 µM is 100%. Moreover, the fraction unbound at 1 h at Albumin was 0.88. Also, the inhibition at 30 µM at hERG (KCNH2) [6] was -6.4%. In addition, the inhibition at 100 µM on hERG (KCNH2) [8] is -7.5%.
Take `COc1c(N2C[C@@H]3CCCN[C@@H]3C2)c(F)cc2c(=O)c(C(=O)O)cn(C3CC3)c12.Cl.O` [MOXIFLOXACIN HYDROCHLORIDE HYDRATE]: in series [13], the AUC(0-t) at 8 h worked out at 10900 ng·h/mL. In [14], this compound returned an AUC(0-t) at 24 h of 6630 ng·h/mL.
Consider `N[C@@]12CCC[C@@H]1CNC2`, for which the MIC stood at 0.025 µg/mL (≈ 0.198 µM) against Moraxella catarrhalis; 0.1 µg/mL (≈ 0.792 µM) against Escherichia coli [2]; 0.1 µg/mL (≈ 0.792 µM) in the series on Enterococcus faecalis; 0.025 µg/mL (≈ 0.198 µM) in the series with Escherichia coli [3]; 0.1 µg/mL (≈ 0.792 µM) with Klebsiella pneumoniae; 0.78 µg/mL (≈ 6.18 µM) against Staphylococcus aureus [5]. In addition, the MIC is 0.39 µg/mL (≈ 3.09 µM) with Pseudomonas aeruginosa; 0.006 µg/mL (≈ 0.0475 µM) against Haemophilus influenzae; 6.25 µg/mL (≈ 49.5 µM) in the series with Escherichia coli [7]; < 0.003 µg/mL in the series on Staphylococcus aureus [9]; 0.1 µg/mL (≈ 0.792 µM) against Streptococcus pneumoniae [10]; 0.012 µg/mL (≈ 0.0951 µM) against Bacillus spizizenii. Also, the results for the MIC with Streptococcus pyogenes, with Streptococcus pneumoniae [11] and against Staphylococcus aureus [12] were 0.025 µg/mL (≈ 0.198 µM), 0.05 µg/mL (≈ 0.396 µM) and 0.78 µg/mL (≈ 6.18 µM), respectively. For the same compound, the Cmax in series [15] amounted to 49 ng/mL. Also, the AUC(0-t) at 8 h in series [16] is 210 ng·h/mL.
On to `COc1c(N2C[C@@H]3CCOC[C@@]3(N)C2)c(F)cc2c(=O)c(C(=O)O)cn([C@@H]3C[C@@H]3F)c12`, for which, in the series on Streptococcus pneumoniae [17], the result was Active.

A word on the inhibition: it is the change of the read-out against control, counted positive when it falls. Broadly, the AUC(0-t) is the area under the concentration-time curve up to a stated or last time point. Usually Cmax stands for the highest concentration seen after dosing.
